Measured values taken from PubChem BioAssay AID270 (DTP/NCI, 2004).
Several values for one entry are separate records, joined by “and”; a condition that tells them apart may be missing. Equal values may be shown once. Inconclusive results are not listed.

Tested on: BDF1 mice, s.c. Lewis lung carcinoma, T/C %
Assay: NCI In Vivo Anticancer Drug Screen. Data for tumor model Lewis Lung Carcinoma (subcutaneous) in B6D2F1 (BDF1) mice
Method in brief: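 Tumor-bearing mice were treated with test compound, and either survival or tumor size was recorded. Values are the treated-group measurement divided by that of the vehicle-treated control group.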

[1] = endpoint: median survival time, dose: 25.0 mg/kg/injection, schedule: Q01DX009 (ip), vehicle: saline with Tween-80, higher = longer survival
[2] = endpoint: median survival time, dose: 50.0 mg/kg/injection, schedule: Q01DX009 (ip), vehicle: saline with Tween-80, higher = longer survival
[3] = endpoint: mean tumor weight, dose: 50.0 mg/kg/injection, schedule: Q01DX011 (ip), vehicle: saline, higher = larger tumour
[4] = endpoint: mean tumor weight, dose: 100.0 mg/kg/injection, schedule: Q01DX011 (ip), vehicle: saline, higher = larger tumour
[5] = endpoint: mean tumor weight, dose: 200.0 mg/kg/injection, schedule: Q01DX011 (ip), vehicle: saline, higher = larger tumour

SMILES: Fc1ccc(CSc2ncnc3c2ncn3C2CCCCO2)cc1 (stereo not given)
- T/C (endpoint: mean tumor weight, dose: 200.0 mg/kg/injection, schedule: Q01DX011 (ip), vehicle: other, higher = larger tumour): 73 % of control
- T/C (endpoint: mean tumor weight, dose: 400.0 mg/kg/injection, schedule: Q01DX011 (ip), vehicle: other, higher = larger tumour): 33 % of control

SMILES: O=P(N1CC1)(N1CC1)N1CC1
- T/C (endpoint: mean tumor weight, dose: 0.2 mg/kg/injection, schedule: Q01DX011 (ip), vehicle: other, higher = larger tumour): 90 % of control
- T/C (endpoint: mean tumor weight, dose: 0.4 mg/kg/injection, schedule: Q01DX011 (ip), vehicle: other, higher = larger tumour): 62 % of control
- T/C (endpoint: mean tumor weight, dose: 0.8 mg/kg/injection, schedule: Q01DX011 (ip), vehicle: other, higher = larger tumour): 58 % of control and 69 % of control
- T/C (endpoint: mean tumor weight, dose: 1.3 mg/kg/injection, schedule: Q01DX011 (ip), vehicle: other, higher = larger tumour): 37 % of control and 45 % of control and 62 % of control
- T/C (endpoint: mean tumor weight, dose: 2.0 mg/kg/injection, schedule: Q01DX011 (ip), vehicle: other, higher = larger tumour): 70 % of control

SMILES: NC(=S)N/N=C/c1cc(-c2cccc(N)c2)ccn1
- T/C (endpoint: median survival time, dose: 6.25 mg/kg/injection, schedule: Q01DX009 (ip), vehicle: saline with Tween-80, higher = longer survival): 106 % of control
- T/C (endpoint: median survival time, dose: 12.5 mg/kg/injection, schedule: Q01DX009 (ip), vehicle: saline with Tween-80, higher = longer survival): 102 % of control and 106 % of control
- T/C [1]: 117 % of control and 119 % of control
- T/C [2]: 87 % of control and 123 % of control

SMILES: O=C(O)CC(O)(CC(=O)O)C(=O)O.[Ga]
- T/C (endpoint: mean tumor weight, dose: 12.5 mg/kg/injection, schedule: Q01DX011 (ip), vehicle: saline, higher = larger tumour): 57 % of control
- T/C (endpoint: mean tumor weight, dose: 25.0 mg/kg/injection, schedule: Q01DX011 (ip), vehicle: saline, higher = larger tumour): 50 % of control
- T/C [3]: 34 % of control

SMILES: C=C1C(=O)O[C@H]2C1[C@H](OC(=O)/C(C)=C\COC(C)=O)C[C@]1(CO1)[C@@H]1[C@H](O)[C@H]3O[C@@]3(C)[C@@H]12 (stereo not given in full)
- T/C (endpoint: median survival time, dose: 3.12 mg/kg/injection, schedule: Q01DX009 (ip), vehicle: other, higher = longer survival): 86 % of control
- T/C (endpoint: median survival time, dose: 6.25 mg/kg/injection, schedule: Q01DX009 (ip), vehicle: other, higher = longer survival): 89 % of control
- T/C (endpoint: median survival time, dose: 12.5 mg/kg/injection, schedule: Q01DX009 (ip), vehicle: other, higher = longer survival): 97 % of control
- T/C (endpoint: median survival time, dose: 25.0 mg/kg/injection, schedule: Q01DX009 (ip), vehicle: other, higher = longer survival): 99 % of control

SMILES: C[N+](C)(C)CCOC(=O)/C=C/c1cnc[nH]1
- T/C (endpoint: median survival time, dose: 5.0 mg/kg/injection, schedule: Q01DX009 (ip), vehicle: saline, higher = longer survival): 102 % of control
- T/C (endpoint: median survival time, dose: 10.0 mg/kg/injection, schedule: Q01DX009 (ip), vehicle: saline, higher = longer survival): 94 % of control
- T/C (endpoint: median survival time, dose: 20.0 mg/kg/injection, schedule: Q01DX009 (ip), vehicle: saline, higher = longer survival): 95 % of control

SMILES: CC(O)CC1CCCN1C (stereo not given)
- T/C [3]: 208 % of control
- T/C [4]: 103 % of control
- T/C [5]: 179 % of control

SMILES: S=C(N=Nc1ccccc1)NNc1ccccc1
- T/C (endpoint: mean tumor weight, dose: 45.0 mg/kg/injection, schedule: Q01DX011 (ip), vehicle: carboxymethylcellulose (CMC), higher = larger tumour): 60 % of control

SMILES: Nc1nc(=S)c2ncn(C3CC(O)C(CO)O3)c2[nH]1 (stereo not given)
- T/C (endpoint: median survival time, dose: 4.0 mg/kg/injection, schedule: Q01DX009 (ip), vehicle: saline, higher = longer survival): 122 % of control
- T/C (endpoint: median survival time, dose: 8.0 mg/kg/injection, schedule: Q01DX009 (ip), vehicle: saline, higher = longer survival): 118 % of control
- T/C (endpoint: median survival time, dose: 16.0 mg/kg/injection, schedule: Q01DX009 (ip), vehicle: saline, higher = longer survival): 108 % of control
- T/C (endpoint: median survival time, dose: 64.0 mg/kg/injection, schedule: Q01DX009 (ip), vehicle: saline, higher = longer survival): 113 % of control

SMILES: O=c1cc(-c2ccc(O)cc2)oc2c(O)c(O)c(O)c(O)c12
- T/C [3]: 70 % of control
- T/C [4]: 73 % of control
- T/C [5]: 43 % of control

SMILES: Nc1ncc(CNc2ccc(C(=O)NC(CCC(=O)O)C(=O)O)cc2)c(N)n1 (stereo not given)
- T/C (endpoint: median survival time, dose: 50.0 mg/kg/injection, schedule: Q01DX009 (ip), vehicle: Klucel (hydroxypropylcellulose) (HPC), higher = longer survival): 94 % of control
- T/C (endpoint: median survival time, dose: 100.0 mg/kg/injection, schedule: Q01DX009 (ip), vehicle: Klucel (hydroxypropylcellulose) (HPC), higher = longer survival): 100 % of control
- T/C (endpoint: median survival time, dose: 400.0 mg/kg/injection, schedule: Q01DX009 (ip), vehicle: Klucel (hydroxypropylcellulose) (HPC), higher = longer survival): 117 % of control

SMILES: N#Cc1ncc(C(Cl)Cl)nc1Cl
- T/C [1]: 113 % of control
- T/C [2]: 98 % of control

SMILES: CCCCn1cnc2c(=S)nc[nH]c21
- T/C (endpoint: mean tumor weight, dose: 15.0 mg/kg/injection, schedule: Q01DX011 (ip), vehicle: water, higher = larger tumour): 49 % of control
- T/C (endpoint: mean tumor weight, dose: 30.0 mg/kg/injection, schedule: Q01DX011 (ip), vehicle: water, higher = larger tumour): 60 % of control
- T/C (endpoint: mean tumor weight, dose: 60.0 mg/kg/injection, schedule: Q01DX011 (ip), vehicle: water, higher = larger tumour): 53 % of control
